Reference: US9090582B2, “Highly pure pentamycin” (Biolotus Biotechnology AG, priority 2008, dated 2015)

Type: physicochemical
Method: The stability of more than 95% pure polymorph A on exposure to air and heat is compared to the stability of amorphous pentamycin (containing more than 95% pure pentamycin) as follows:
Amorphous pentamycin is prepared by precipitation from a solution of more than 95% pure pentamycin in dimethylsulfoxide by adding acetonitrile, followed by filtering and drying the precipitate.
More than 95% pure polymorph A of pentamycin is prepared by crystallization from a solution of more than 95% pure pentamycin in dimethylsulfoxide by adding ethyl acetate, followed by filtering and drying the precipitate.
A sample of the thus obtained amorphous pentamycin and a sample of the thus obtained polymorph A are incubated in an open vessel about six days at 60° C. and additionally 2 weeks at 40° C. The process of degradation is monitored by HPLC, measuring the decrease of the purity relative to the inital state at zero time (t0) set on 100%. After the incubation the amount of degradation of amorphous pentamycin is 11% whereas the amount of degradation of polymorph A is only 1%.

Row | Structure (SMILES) | amount of degradation (decrease of the purity relative to the initial state at zero time t0 set on 100%)
1 | CCCCC[C@@H](O)[C@H]1C(=O)O[C@H](C)[C@@H](O)/C=C/C=C/C=C/C=C/C=C(\C)[C@@H](O)[C@H](O)[C@H](O)C[C@H](O)C[C@H](O)C[C@H](O)C[C@H](O)C[C@@H]1O [amorphous pentamycin, pentamycin] | 11%
2 | CCCCC[C@@H](O)[C@H]1C(=O)O[C@H](C)[C@@H](O)/C=C/C=C/C=C/C=C/C=C(\C)[C@@H](O)[C@H](O)[C@H](O)C[C@H](O)C[C@H](O)C[C@H](O)C[C@H](O)C[C@@H]1O [polymorph A, pentamycin] | 1%
